SMILES strings stand for the structures.

wild type PKM2, sequence (P14618 whole entry): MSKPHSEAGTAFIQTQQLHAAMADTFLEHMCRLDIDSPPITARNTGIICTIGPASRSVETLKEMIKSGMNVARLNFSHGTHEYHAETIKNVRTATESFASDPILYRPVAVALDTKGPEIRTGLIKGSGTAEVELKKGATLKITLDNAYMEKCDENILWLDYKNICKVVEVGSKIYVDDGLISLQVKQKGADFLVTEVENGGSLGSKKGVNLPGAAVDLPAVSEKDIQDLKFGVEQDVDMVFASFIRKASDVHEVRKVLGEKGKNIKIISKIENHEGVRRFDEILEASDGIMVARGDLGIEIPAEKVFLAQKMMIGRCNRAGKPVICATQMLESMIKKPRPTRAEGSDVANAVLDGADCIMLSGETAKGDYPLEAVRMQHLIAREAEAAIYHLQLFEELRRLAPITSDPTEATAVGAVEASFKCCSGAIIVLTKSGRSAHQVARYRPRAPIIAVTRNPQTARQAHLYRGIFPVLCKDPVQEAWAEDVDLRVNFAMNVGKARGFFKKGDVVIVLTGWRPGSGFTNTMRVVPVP

The assay has as its target wild type PKM2 (Homo sapiens, UniProt P14618). As to the kind of experiment: PKM2 Assay (LDH/NADH-coupled, absorbance at 340 nm). The class given is biochemical. The following applies: wild type PKM2 activation; 60 min preincubation at 25° C.; ADP 0.4 mM, PEP 0.11 mM; read-out: PKM2 WT AC50. The protocol: A compound described herein may be tested for its ability to activate PKM2. For simplicity, the activation activity of these compounds is represented as an AC50 in Table 2. In Tables 2, a compound described herein may have an AC50 of wild type PKM2.
PKM2 enzyme stock solution was diluted to prepare a 1.11× Reaction Mix (without ADP). 1 μL of test compound was first added to the wells followed by 40 μL of 1.11× Reaction Mix (without ADP) and incubated at room temperature (25° C.) for 60 min. The reaction was initiated with 10 μL ADP (0.4 mM final concentration), bringing the final Reaction Mix to 1×, and the reaction progress was measured as changes in absorbance at 340 nm wavelength at room temperature.
Test compound preparation: Test compounds were prepared at 50× final concentration in DMSO. 1 to 3 dilutions were made for 11 points (for example 50 μL of 5000 μM compound was added to 100 μL 100% DMSO to yield a 1667 μM, 50 μL of this added to 100 μL DMSO to yield 556 μM, and so forth). The compounds were added to the assay as a 1 to 50 dilution (1 μL in 50 μL) to yield a top concentration of 100 μM, decreasing 3-fold for 11 points.
Reaction Mix: PKM2 (5 ng/well, 0.1 μg/ml), ADP (0.4 mM), PEP (0.11 mM), NADH (180 μM), LDH (0.005 U/μL, Sigma #L3888), 1 mM DTT, 0.03% BSA in 1× Reaction Buffer
Reaction Buffer: 100 mM KCl, 50 mM Tris pH 7.5, 5 mM MgCl2.
What is called AC50 is the concentration at which the activity in the assay is half-maximal. `Cn1c2nc(Cn3ccnc3)sc2c2cnn(Cc3cccc(C(N)=O)c3)c(=O)c21` [Compound 129]: the AC50 is under 300 nM. With `Cn1ccc(Cn2ncc3c4sc(Cc5cccc(N)n5)nc4n(C)c3c2=O)n1` [Compound 109] the figure was under 300 nM. For the compound `Cn1c2nc(Cc3c[nH]nn3)sc2c2cnn(Cc3cccc(N)n3)c(=O)c21` [Compound 104], the AC50 was under 300 nM. Consider `Cn1c2nc(Nc3ccccc3)sc2c2cnn(Cc3cccc4[nH]ncc34)c(=O)c21` [Compound 52], for which the AC50 is over 800 nM. With `Cn1c2nc(Cc3cc[nH]n3)sc2c2cnn(Cc3ccn[nH]3)c(=O)c21` [Compound 63] the figure was under 300 nM. With `Cn1cc(CN)c(Cn2ncc3c4sc(Cc5cc[nH]n5)nc4n(C)c3c2=O)n1` [Compound 124] the figure was 301 to 800 nM. In the case of `Cc1nc2c(s1)c1cnn(Cc3ccc4[nH]c(=O)[nH]c4c3)c(=O)c1n2C` [Compound 22] it was over 800 nM. For the compound `COCc1cn(C)nc1Cn1ncc2c3sc(Cc4cc[nH]n4)nc3n(C)c2c1=O` [Compound 120], the AC50 is over 800 nM. With `Cn1c2nc(Cc3cnoc3)sc2c2cnn(Cc3cccc4[nH]ncc34)c(=O)c21` [Compound 65] the figure was under 300 nM.

In the case of `Cn1c2nc(Cc3ccccn3)sc2c2cnn(Cc3nccs3)c(=O)c21` [Compound 91], the AC50 was under 300 nM. With `Cc1nc2c(s1)c1cnn(Cc3ccc([N+](=O)[O-])cc3)c(=O)c1n2C` [Compound 17] the figure was over 800 nM; with `COc1cccc(Cn2ncc3c4sc(CC5CCCCC5)nc4n(C)c3c2=O)c1` [Compound 19], over 800 nM. With `Cn1c2nc(Cc3cc[nH]n3)sc2c2cnn(Cc3cccc4c3CCN4)c(=O)c21` [Compound 85] the figure was under 300 nM; with `Cn1c2nc(Cc3cc[nH]n3)sc2c2cnn(Cc3cscn3)c(=O)c21` [Compound 87], under 300 nM; with `COC(=O)C(c1ccccc1)c1nc2c(s1)c1cnn(Cc3cccc4[nH]ncc34)c(=O)c1n2C` (stereo not shown) [Compound 51], under 300 nM. With `Cn1c2nc([S+](C)[O-])sc2c2cnn(Cc3ccnc(N)n3)c(=O)c21` (stereo not shown) [Compound 36] the figure was 301 to 800 nM. In the case of `Cc1nc2c(s1)c1cnn(CCCO)c(=O)c1n2C` [Compound 15], the half-maximal activity concentration (AC50) was over 800 nM.

For the compound `Cn1c2nc(Cn3ccnc3)sc2c2cnn(Cc3ccnc(N)n3)c(=O)c21` [Compound 144], the AC50 was over 800 nM.

With `CSc1nc2c(s1)c1cnn(Cc3cn4cccnc4n3)c(=O)c1n2C` [Compound 40], the AC50 was over 800 nM. In the case of `Cn1c2nc(Cc3cncnc3)sc2c2cnn(Cc3cccc4[nH]ncc34)c(=O)c21` [Compound 56] it was over 800 nM; in that of `Cn1c2nc(Cc3cc[nH]n3)sc2c2cnn(Cc3csc(CO)n3)c(=O)c21` [Compound 68], under 300 nM. With `Cn1c2nc(Cn3cncn3)sc2c2cnn(Cc3ccnc(N)n3)c(=O)c21` [Compound 143] the figure was over 800 nM. With `Cn1c2nc(Cn3cncn3)sc2c2cnn(Cc3n[nH]c(=O)[nH]3)c(=O)c21` [Compound 145] the figure was over 800 nM.

Take `O=c1c2c(cnn1Cc1ccccc1)c1sc(Cc3cc[nH]n3)nc1n2Cc1ccccc1` [Compound 142]: the AC50 was over 800 nM. Regarding `CSc1nc2c(s1)c1cnn(Cc3csc(-n4c(C)ccc4C)n3)c(=O)c1n2C` [Compound 47], the AC50 is over 800 nM.

Regarding `Cn1c2nc(Cc3cc[nH]c(=O)c3)sc2c2cnn(Cc3cccc4[nH]ncc34)c(=O)c21` [Compound 76], the AC50 is under 300 nM. With `Cn1c2nc(Cc3cc[nH]n3)sc2c2cnn(Cc3cncs3)c(=O)c21` [Compound 70], the AC50 was under 300 nM. In the case of `C=Cc1nc2c(s1)c1cnn(Cc3cccc4[nH]ncc34)c(=O)c1n2C` [Compound 39] it was under 300 nM; in that of `CCOC(=O)Cn1ncc2c3sc(C)nc3n(C)c2c1=O` [Compound 24], over 800 nM. In the case of `Cn1c2nc(Cc3cc[nH]n3)sc2c2cnn(CCc3cccc(N)n3)c(=O)c21` [Compound 126], the AC50 is under 300 nM. In the case of `Cn1c2nc(Cc3cc[nH]n3)sc2c2cnn(Cc3coc(C(N)=O)n3)c(=O)c21` [Compound 132] it was under 300 nM; in that of `Cn1c2nc(-n3cnc(CS(=O)(=O)c4ccccc4)c3)sc2c2cnn(Cc3cccc4[nH]ncc34)c(=O)c21` [Compound 67], over 800 nM; in that of `Cn1c2nc(Cc3cc[nH]n3)sc2c2cnn(Cc3nccs3)c(=O)c21` [Compound 78], under 300 nM.

`COc1cccc(Cn2ncc3c4sc(C(=O)c5cccc(O)c5)nc4n(C)c3c2=O)c1` [Compound 21]: the AC50 is under 300 nM. In the case of `Cc1nc2c(s1)c1cnn(Cc3cccc4c3cnn4C)c(=O)c1n2C` [Compound 28] it was under 300 nM; in that of `Cc1nc2c(s1)c1cnn(Cc3cccc4[nH]ncc34)c(=O)c1n2C` [Compound 8], under 300 nM.

For `Cn1c2nc(Cc3csc(CO)n3)sc2c2cnn(Cc3cc[nH]n3)c(=O)c21` [Compound 90], the AC50 is under 300 nM.

As for `Cn1c2nc(Cc3cc[nH]n3)sc2c2cnn(Cc3cccc4c3NS(=O)(=O)N4)c(=O)c21` [Compound 98], the AC50 lay in the range of 301 to 800 nM. In the case of `Cn1c2nc(CN)sc2c2cnn(Cc3cccc4[nH]ncc34)c(=O)c21` [Compound 49] it was 301 to 800 nM; in that of `Cc1nc2c(s1)c1cnn(Cc3cccc([N+](=O)[O-])c3)c(=O)c1n2C` [Compound 16], 301 to 800 nM; in that of `CCOC(c1cscn1)c1nc2c(s1)c1cnn(Cc3c[nH]nn3)c(=O)c1n2C` (stereo not shown) [Compound 114], over 800 nM. On to `Cn1ccc(CCn2ncc3c4sc(Cc5cccnc5)nc4n(C)c3c2=O)n1` [Compound 137], for which the AC50 is 301 to 800 nM. On to `Cn1c2nc(Cc3ccns3)sc2c2cnn(Cc3cccc4[nH]ncc34)c(=O)c21` [Compound 82], for which the AC50 is 301 to 800 nM. `Cn1c2nc(Cc3csc(CO)n3)sc2c2cnn(Cc3nccs3)c(=O)c21` [Compound 93]: the AC50 is under 300 nM. For `Cc1nc2c(s1)c1cnn(Cc3cccc(F)c3)c(=O)c1n2C` [Compound 2], the half-maximal activity concentration (AC50) is under 300 nM. For the compound `Cn1ccc(Cc2nc3c(s2)c2cnn(Cc4ccn[nH]4)c(=O)c2n3C)n1` [Compound 110], the AC50 was under 300 nM. With `Cc1nc2c(s1)c1cnn(Cc3ccc4nn[nH]c4c3)c(=O)c1n2C` [Compound 6] the figure was 301 to 800 nM; with `Cn1c2nc([S+](C)[O-])sc2c2cnn(Cc3cnc(N)nc3)c(=O)c21` (stereo not shown) [Compound 34], over 800 nM; with `CC(=O)Nc1ccc(F)c(Cn2ncc3c4sc(Cc5cc[nH]n5)nc4n(C)c3c2=O)n1` [Compound 115], under 300 nM.

`Cn1c2nc([S+](C)[O-])sc2c2cnn(Cc3ccc(C#N)cc3)c(=O)c21` (stereo not shown) [Compound 27]: the AC50 was in the range of 301 to 800 nM. In the case of `Cn1c2nc(Cc3cc[nH]n3)sc2c2cnn(Cc3c[nH]nn3)c(=O)c21` [Compound 89] it was under 300 nM. In the case of `Cn1c2nc(Cc3n[nH]cc3F)sc2c2cnn(Cc3cc[nH]n3)c(=O)c21` [Compound 111] it was under 300 nM; in that of `COC(=O)C(C(=O)OC)c1nc2c(s1)c1cnn(Cc3cccc4[nH]ncc34)c(=O)c1n2C` [Compound 43], under 300 nM. For `CC(=O)Nc1ccc(F)c(Cn2ncc3c4sc(Cn5ccnc5)nc4n(C)c3c2=O)n1` [Compound 130], the concentration at half-maximal activity (AC50) is over 800 nM. With `CSc1nc2c(s1)c1cnn(Cc3ccnc(=O)[nH]3)c(=O)c1n2C` [Compound 35] the figure was over 800 nM; with `Cc1nc2c(s1)c1cnn(Cc3cccc4cn[nH]c34)c(=O)c1n2C` [Compound 23], 301 to 800 nM. For the compound `COc1cccc(Cn2ncc3c4sc(C(=O)c5ccccc5)nc4n(C)c3c2=O)c1` [Compound 1], the AC50 is under 300 nM. With `Cn1c2nc(Cc3n[nH]cc3C(F)(F)F)sc2c2cnn(Cc3cccc4[nH]ncc34)c(=O)c21` [Compound 59] the figure was over 800 nM; with `C=Cc1nc2c(s1)c1cnn(Cc3cccc(OC)c3)c(=O)c1n2C` [Compound 11], under 300 nM. In the case of `Cc1nc2c(s1)c1cnn(Cc3ccc(N)cc3)c(=O)c1n2C` [Compound 18] it was over 800 nM; in that of `Cn1cc(Cc2nc3c(s2)c2cnn(Cc4cccc5[nH]ncc45)c(=O)c2n3C)cn1` [Compound 66], under 300 nM. In the case of `Cn1c2nc(NC(=O)Cc3cc[nH]n3)sc2c2cnn(Cc3cccc4[nH]ncc34)c(=O)c21` [Compound 64] it was over 800 nM.

As to `Cn1c2nc(Cc3ccc(C(N)=O)cc3)sc2c2cnn(Cc3cccc4[nH]ncc34)c(=O)c21` [Compound 42], the AC50 was over 800 nM. For the compound `Cn1cc(C(N)=O)c(Cn2ncc3c4sc(Cc5cc[nH]n5)nc4n(C)c3c2=O)n1` [Compound 116], the concentration at half-maximal activity (AC50) is over 800 nM. Regarding `CCOC(=O)c1cccc(Cn2ncc3c4sc(C)nc4n(C)c3c2=O)c1` [Compound 4], the AC50 lay in the range of 301 to 800 nM.

As to `Cn1c2nc(Cc3cc[nH]n3)sc2c2cnn(Cc3nccc(N)n3)c(=O)c21` [Compound 135], the concentration at half-maximal activity (AC50) is under 300 nM. With `Cc1nc2c(s1)c1cnn(Cc3cccc(F)n3)c(=O)c1n2C` [Compound 9] the figure was 301 to 800 nM.

For the origin of these results see patent US11872225B2, “Pyruvate kinase modulators and use thereof” (Agios Pharmaceuticals, Inc., priority 2017, dated 2024).
